Legend:
OAT1 = target: T1, OAT1 (Homo sapiens, UniProt Q4U2R8); experiment: [14C]fluciclovine uptake by OAT1-expressing cells; format: in vitro ADME; settings: OAT1 cells vs mock cells
T1 construct: host or cells: Flp-in-293
T1 sequence (Q4U2R8 1-563): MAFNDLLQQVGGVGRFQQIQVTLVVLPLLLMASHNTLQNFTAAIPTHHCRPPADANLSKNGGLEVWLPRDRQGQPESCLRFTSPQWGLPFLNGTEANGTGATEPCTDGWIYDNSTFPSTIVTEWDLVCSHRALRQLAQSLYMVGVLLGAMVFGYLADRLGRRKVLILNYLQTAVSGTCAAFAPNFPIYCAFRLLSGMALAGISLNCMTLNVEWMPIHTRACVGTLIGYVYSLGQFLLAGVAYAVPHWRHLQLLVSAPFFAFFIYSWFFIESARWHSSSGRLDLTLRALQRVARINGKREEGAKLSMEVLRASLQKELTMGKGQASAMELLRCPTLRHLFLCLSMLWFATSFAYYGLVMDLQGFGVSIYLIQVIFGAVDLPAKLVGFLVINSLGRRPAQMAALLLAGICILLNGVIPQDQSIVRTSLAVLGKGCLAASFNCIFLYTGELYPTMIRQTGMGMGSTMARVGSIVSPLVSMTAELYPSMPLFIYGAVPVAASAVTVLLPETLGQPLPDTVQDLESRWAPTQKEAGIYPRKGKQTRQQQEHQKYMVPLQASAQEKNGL
Procedure: For the SLC transporter experiments, Mock Flp-in-293 cells (Flp/mock), OAT1-expressing Flp-in-293 cells (Flp/OAT1), mock HEK293 cells (HEK/mock), and OATP1B3-expressing HEK293 cells (HEK/OATP1B3) were obtained from Kanazawa University (Ishikawa, Japan). Briefly, Flp-in-293 and HEK293 cells were transfected with the appropriate plasmid DNA and selected using antibiotics (hygromycin or G-418). All cell lines were cultured in DMEM (Life Technologies Japan) supplemented with 10% (v/v) fetal bovine serum (American Type Culture Collection) and antibiotics (100 U/mL penicillin and 100 μg/mL streptomycin (Life Technologies Japan) for mock cells, 0.2 mg/mL hygromycin for Flp/OAT1 cells, and 1.2 mg/mL G-418 (Roche Diagnostics K.K., Tokyo, Japan) for HEK/OATP1B3 cells) at 37 °C under an atmosphere containing 5% CO2. […]
The experiments were performed as described previously, with minor modifications. […] The cells were lysed in 0.3 mL of 0.1N NaOH at room temperature, after which the radioactivity of each aliquot was measured as described above. The protein concentration of the cell lysate was determined with a VersaMax microplate reader (Molecular Devices Japan K.K., Osaka, Japan) or SpectraMax i3x (Molecular Devices Japan K.K.; only for OATP1B1) using a BCA Protein Assay Kit (Thermo Fisher Scientific, Kanagawa, Japan). Tracer uptake was expressed as pmol/mg protein. […]

human BCRP = target: T2, human BCRP (Homo sapiens, UniProt Q9UNQ0); experiment: [14C]fluciclovine uptake by BCRP-expressing inside-out vesicles; format: in vitro ADME
T2 construct: purchased GenoMembrane Co., Ltd. (Kanagawa, Japan); host or cells: Sf9
T2 sequence (Q9UNQ0 1-655): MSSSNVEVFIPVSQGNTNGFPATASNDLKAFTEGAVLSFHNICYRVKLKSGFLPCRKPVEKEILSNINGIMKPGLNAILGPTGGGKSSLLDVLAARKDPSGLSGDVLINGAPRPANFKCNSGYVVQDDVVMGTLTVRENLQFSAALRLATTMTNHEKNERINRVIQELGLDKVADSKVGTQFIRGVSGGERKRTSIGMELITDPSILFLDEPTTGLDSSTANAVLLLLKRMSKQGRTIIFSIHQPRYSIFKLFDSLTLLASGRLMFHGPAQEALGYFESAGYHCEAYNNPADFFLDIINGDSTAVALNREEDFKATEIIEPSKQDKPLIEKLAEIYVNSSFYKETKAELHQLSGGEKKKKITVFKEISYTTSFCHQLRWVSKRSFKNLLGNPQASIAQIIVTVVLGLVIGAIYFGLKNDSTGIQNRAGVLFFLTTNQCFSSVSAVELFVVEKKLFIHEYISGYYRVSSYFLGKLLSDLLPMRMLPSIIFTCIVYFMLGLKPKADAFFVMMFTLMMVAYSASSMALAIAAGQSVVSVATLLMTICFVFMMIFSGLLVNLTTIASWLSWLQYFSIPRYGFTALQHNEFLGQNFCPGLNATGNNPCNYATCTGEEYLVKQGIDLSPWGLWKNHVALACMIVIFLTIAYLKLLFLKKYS
Procedure: For ABC transporters, experimental kits containing Sf9-derived vesicles with high expression levels of human P-gp, MRP4, BCRP, and each ABC transporter (including buffer, ATP/AMP solution, and glutathione) were purchased from GenoMembrane Co., Ltd. (Kanagawa, Japan).
Vesicular transport assays were carried out according to the manufacturer’s protocol. […] The reaction was started by suspending 50 μg of vesicles (10 μL) in 40 μL of the reaction buffer. After incubation for an appropriate period of time, the reaction was stopped by the addition of ice-cold stop buffer (40 mM MOPS-Tris and 70 mM KCl; pH 7.0), after which the solution was filtered through a 0.45 μm HA filter (Millipore Corp., Billerica, MA, USA) using suction, and was washed twice in 5 mL of ice-cold stop buffer. The radioactivity of the filter was measured with a Tri-Carb 2910TR liquid scintillation counter (PerkinElmer) using Ultima Gold (PerkinElmer). The amount of tracer uptake was normalized to the membrane protein amount described in the product information sheets.

**Q.** With `N[14C]1(C(=O)O)CC(F)C1` (stereo not drawn) [[^14C]fluciclovine, trans-1-amino-3-fluoro[1-^14C]cyclobutanecarboxylic acid] as the compound, how does the drug transporter-mediated uptake (OAT1) read?
**A.** negligible

**Q.** And the “uptake compared with control vesicles” value (human BCRP)?
**A.** reduced in comparison to that of the control vesicles, albeit not significantly

Source: article PMC5085761 (International Journal of Molecular Sciences, 2016)
